This is an account of results in patent publication US20240390340A1 (INCYTE CORPORATION, priority 2023, published 2024).

The structures appear in SMILES notation. Where only a bound is given, the exact number is not on record here.

Data set [1] deals with KRAS. Description: KRAS inhibition, assay not specified (at least one assay described herein). Particulars: Peak 1 versus Peak 2 of prep. LCMS; assay not stated.
Data set [2] has as its target KRAS G12D (Homo sapiens, UniProt P01116, G12D). Description: GDP-GTP exchange assay (bodipy-GDP/GppNHp, SOS1), KRAS G12D. It is filed as biochemical. To be noted: Table H, column G12D; for compounds isolated as several atropisomers/diastereoisomers the value for the most potent isomer is quoted; read-out: KRAS G12D exchange assay IC50.
Data set [3] addresses KRAS G12V (Homo sapiens, UniProt P01116, G12V). The data set is described as follows: GDP-GTP exchange assay (bodipy-GDP/GppNHp, SOS1), KRAS G12V. The format is biochemical. Particulars: Table H, column G12V; for compounds isolated as several atropisomers/diastereoisomers the value for the most potent isomer is quoted; read-out: KRAS G12V exchange assay IC50.
The subject of data set [4] is Caco-2 cells. Description: Caco2 assay (Papp A-B). The format is in vitro ADME. To be noted: test compound 50 μM, 120 min, 37° C. Put shortly: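 Caco-2 monolayers grown 22–25 days on Transwells (TEER 300 Ω·cm^2) were dosed apically with 50 μM compound in HBSS; basolateral receiver held HBSS with 4% BSA. Incubation 120 min at 37° C, 5% CO2; donor and receiver samples quantified by LCMS and Papp A-B calculated from receiver-side cumulative flux slope.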

KRAS G12V, sequence (P01116 1-188 isoform P01116-2 G12V): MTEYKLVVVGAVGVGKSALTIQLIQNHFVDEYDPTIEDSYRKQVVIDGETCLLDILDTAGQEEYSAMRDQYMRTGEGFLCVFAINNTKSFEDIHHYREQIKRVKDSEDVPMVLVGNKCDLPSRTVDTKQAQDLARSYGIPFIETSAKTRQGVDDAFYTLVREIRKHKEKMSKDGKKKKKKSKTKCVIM
KRAS G12D, sequence (P01116 1-188 isoform P01116-2 G12D): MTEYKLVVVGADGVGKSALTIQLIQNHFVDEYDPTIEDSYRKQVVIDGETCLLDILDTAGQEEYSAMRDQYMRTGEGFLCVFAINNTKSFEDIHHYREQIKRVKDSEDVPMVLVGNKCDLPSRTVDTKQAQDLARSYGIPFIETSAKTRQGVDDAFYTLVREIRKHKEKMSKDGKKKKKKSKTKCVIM

For `COc1nccc(O[C@H]2C[C@H](c3cc4c([C@@H](C)O)nc5c(F)c(-c6cccc(Cl)c6Cl)c(CCC#N)cc5c4n3[C@H]3[C@H]4CN[C@@H]3C4)N(C(=O)C3CC3)C2)c1F` (single isomer, unassigned) [Example 53, Diastereomer 1 (Peak 1)], the “potency of the separated diastereoisomer (atropisomer) in words” value (“potency of the separated diastereoisomer” below) in data set [1] is on record as “potent”.
Still for that read-out and setting: next, `CC[C@@H]1[C@@H](Oc2cc(OC)ncc2F)C[C@H](c2cc3c([C@@H](C)O)nc4c(F)c(-c5cccc(Cl)c5Cl)c(CCC#N)cc4c3n2[C@H]2[C@H]3CN[C@@H]2C3)N1C(=O)C1CC1` (single isomer, unassigned) [Example 82, Diastereomer 1 (Peak 1)]: “potent”; `[2H]C([2H])([2H])O[C@H]1CC[C@@H]1O[C@H]1C[C@H](c2cc3c(C)nc4c(F)c(-c5cccc(Cl)c5Cl)c(CCC#N)cc4c3n2[C@H]2[C@H]3CN[C@@H]2C3)N(C(=O)C2CC2)C1` (single isomer, unassigned) [Example 80, Diastereomer 1 (Peak 1)]: “potent”; `COC[C@@H]1[C@@H](Oc2cc(OC)ncc2F)C[C@H](c2cc3c([C@@H](C)O)nc4c(F)c(-c5cccc(Cl)c5Cl)c(CCC#N)cc4c3n2[C@H]2[C@H]3CN[C@@H]2C3)N1C(=O)C1CC1` (single isomer, unassigned): “potent”.
In the case of `COc1ncccc1O[C@H]1C[C@H](c2cc3c(C)nc4c(F)c(-c5cccc(Cl)c5Cl)c(CCC#N)cc4c3n2[C@H]2[C@H]3CN[C@@H]2C3)N(C(=O)C2CC2)C1` (single isomer, unassigned) [Example 1, Diastereomer 1 (Peak 1)], the “potency of the separated diastereoisomer” value in data set [1] is on record as “potent”.
Still for that read-out and setting: as for `Cc1nc2c(F)c(-c3cccc(Cl)c3Cl)c(CCC#N)cc2c2c1cc([C@H]1C[C@H](OC(F)(F)c3ccccc3)CN1C(=O)C1CC1)n2[C@H]1[C@H]2CN[C@@H]1C2` (single isomer, unassigned) [Example 79, Diastereomer 1 (Peak 1)], the entry is “potent”.
In the case of `Cc1nc2c(F)c(-c3cccc(Cl)c3Cl)c(CCC#N)cc2c2c1cc([C@H]1C[C@H](OC3(C)CCC3)CN1C(=O)C1CC1)n2[C@H]1[C@H]2CN[C@@H]1C2` (single isomer, unassigned) [Example 78, Diastereomer 1 (Peak 1)], the “potency of the separated diastereoisomer” value in data set [1] is “potent”.
Take `Cc1nc2c(F)c(-c3cccc(Cl)c3Cl)c(CCC#N)cc2c2c1cc([C@H]1C[C@H](n3cc(C(C)(C)C)nn3)CN1C(=O)C1CC1)n2[C@H]1[C@H]2CN[C@@H]1C2` (single isomer, unassigned) [Example 4, Diastereomer 1 (Peak 1)]: the “potency of the separated diastereoisomer” value in data set [1] is given as “potent”.
Regarding `Cc1nc2c(F)c(-c3cccc(Cl)c3Cl)c(CCC#N)cc2c2c1cc([C@H]1C[C@](C)(OCc3ccccc3)CN1C(=O)C1CC1)n2[C@H]1[C@H]2CN[C@@H]1C2` (single isomer, unassigned) [Example 81, Diastereomer 1 (Peak 1)], in data set [1], the “potency of the separated diastereoisomer” value is “potent”.
On the same count and under the same terms, as for `C[C@@H]1[C@@H](Oc2cc(F)ccn2)C[C@H](c2cc3c([C@@H](C)O)nc4c(F)c(-c5cccc(Cl)c5Cl)c(CCC#N)cc4c3n2[C@H]2[C@H]3CN[C@@H]2C3)N1C(=O)C1CC1` (single isomer, unassigned) [Example 63, Diastereomer 1 (Peak 1)], the entry is “potent”; as for `COc1cc(O[C@H]2C[C@H](c3cc4c(C(C)O)nc5c(F)c(-c6cccc(Cl)c6Cl)c(CCC#N)cc5c4n3[C@H]3[C@H]4CN[C@@H]3C4)N(C(=O)C3CC3)C2)ccn1` (single isomer, unassigned) [Example 2, Diastereomer 1 (Peak 1)], “potent”.
The same measure, in the same setting: next, `COc1cc(O[C@H]2C[C@H](c3cc4c([C@@H](C)O)nc5c(F)c(-c6cccc(Cl)c6Cl)c(CCC#N)cc5c4n3[C@H]3[C@H]4CN[C@@H]3C4)N(C(=O)C3CC3)[C@@H]2C)c(F)cn1` (single isomer, unassigned) [Example 51, Diastereomer 1 (Peak 1)]: “potent”; `COc1ccc(O[C@H]2C[C@H](c3cc4c([C@@H](C)O)nc5c(F)c(-c6cccc(Cl)c6Cl)c(CCC#N)cc5c4n3[C@H]3[C@H]4CN[C@@H]3C4)N(C(=O)C3CC3)C2)cn1` (single isomer, unassigned) [Example 76, Diastereomer 1 (Peak 1)]: “potent”; `C[C@@H](O)c1nc2c(F)c(-c3cccc(Cl)c3Cl)c(CCC#N)cc2c2c1cc([C@H]1[C@@H](F)[C@H](Oc3ccccn3)CN1C(=O)C1CC1)n2[C@H]1[C@H]2CN[C@@H]1C2` (single isomer, unassigned): “potent”.
The same measure, in the same setting: as for `COc1cc(O[C@H]2C[C@H](c3cc4c([C@@H](C)O)nc5c(F)c(-c6cccc(Cl)c6Cl)c(CCC#N)cc5c4n3[C@H]3[C@H]4CN[C@@H]3C4)N(C(=O)C3(C)CC3)[C@@H]2C)c(F)cn1` (single isomer, unassigned) [Example 52, Diastereomer 1 (Peak 1)], the entry is “potent”; as for `C[C@@H](O)c1nc2c(F)c(-c3cccc(Cl)c3Cl)c(CCC#N)cc2c2c1cc([C@H]1C[C@H](Oc3cc(C4CC4)on3)CN1C(=O)C1CC1)n2[C@H]1[C@H]2CN[C@@H]1C2` (single isomer, unassigned) [Example 77, Diastereomer 1 (Peak 1)], “potent”.
On to `C[C@@H](O)c1nc2c(F)c(-c3cccc(Cl)c3Cl)c(CCC#N)cc2c2c1cc([C@H]1[C@H](O)[C@H](Oc3ccccn3)CN1C(=O)C1CC1)n2[C@H]1[C@H]2CN[C@@H]1C2` (single isomer, unassigned), for which the “potency of the separated diastereoisomer” value in data set [1] is “potent”.
Same read-out and setting: as for `C[C@@H](O)c1nc2c(F)c(-c3cccc(Cl)c3Cl)c(CCC#N)cc2c2c1cc([C@H]1C[C@H](Oc3nccs3)CN1C(=O)C1CC1)n2[C@H]1[C@H]2CN[C@@H]1C2` (single isomer, unassigned) [Example 54, Diastereomer 1 (Peak 1)], the entry is “potent”; as for `C[C@@H]1[C@@H](Oc2c(F)ccnc2Cl)C[C@H](c2cc3c([C@@H](C)O)nc4c(F)c(-c5cccc(Cl)c5Cl)c(CCC#N)cc4c3n2[C@H]2[C@H]3CN[C@@H]2C3)N1C(=O)C1CC1` (single isomer, unassigned) [Example 64, Diastereomer 1 (Peak 1)], “potent”; as for `Cc1cc(F)cc(O[C@H]2C[C@H](c3cc4c([C@@H](C)O)nc5c(F)c(-c6cccc(Cl)c6Cl)c(CCC#N)cc5c4n3[C@H]3[C@H]4CN[C@@H]3C4)N(C(=O)C3CC3)C2)n1` (single isomer, unassigned) [Example 62, Diastereomer 1 (Peak 1)], “potent”.
The same measure, in the same setting: next, `CC(O)c1nc2c(F)c(-c3cccc(Cl)c3Cl)c(CCC#N)cc2c2c1cc([C@H]1C[C@H](OCc3ccc(F)cc3C#N)CN1C(=O)C1(C)CC1)n2[C@H]1[C@H]2CN[C@@H]1C2` (single isomer, unassigned) [Example 35, Diastereomer 1 (Peak 1)]: “potent”.
Consider `COc1cc(O[C@H]2C[C@H](c3cc4c([C@@H](C)O)nc5c(F)c(-c6cccc(Cl)c6Cl)c(CCC#N)cc5c4n3[C@H]3[C@H]4CN[C@@H]3C4)N(C(=O)C3CC3)[C@@H]2C)c(F)cn1` [Example 51, 3-(1-((1R,4R,5S)-2-Azabicyclo[2.1.1]hexan-5-yl)-2-((2R,4S,5R)-1-(cyclopropanecarbonyl)-4-((5-fluoro-2-methoxypyridin-4-yl)oxy)-5-methylpyrrolidin-2-yl)-7-(2,3-dichlorophenyl)-6-fluoro-4-((R)-1-hydroxyethyl)-1H-pyrrolo[3,2-c]quinolin-8-yl)propanenitrile], for which the IC50 in data set [2] and in data set [3] was not above 0.1 µM each time. The Caco-2 entry in data set [4] is “+ (a Caco-2 value of ≤0.5)”.
